From PubChem BioAssay AID1259407 (Chemical Carcinogenesis Research Information System (CCRIS), 2018)
Active and inactive are the calls of the source. How the calls were made is not given here.

Test system: CCRIS mutagenicity, Ames/micronucleus/aberration tests
Assay: CCRIS mutagenicity studies
[1] = Test System: AMES SALMONELLA TYPHIMURIUM, Strain/Indicator: TA98, Metabolic Activation: NONE, Method: STANDARD PLATE
[2] = Test System: AMES SALMONELLA TYPHIMURIUM, Strain/Indicator: TA98, Metabolic Activation: RAT, LIVER, S-9, AROCLOR 1254, Method: STANDARD PLATE
[3] = Test System: AMES SALMONELLA TYPHIMURIUM, Strain/Indicator: TA100, Metabolic Activation: NONE, Method: STANDARD PLATE
[4] = Test System: AMES SALMONELLA TYPHIMURIUM, Strain/Indicator: TA100, Metabolic Activation: RAT, LIVER, S-9, AROCLOR 1254, Method: STANDARD PLATE

`CCC(CCCC(=O)O)COC(=O)c1ccccc1C(=O)O` (stereo not given) was tested, and the mutagenic call (Test System: AMES SALMONELLA TYPHIMURIUM, Strain/Indicator: TA97, Metabolic Activation: NONE, Method: STANDARD PLATE) was “inactive; negative”, the mutagenic call (Test System: AMES SALMONELLA TYPHIMURIUM, Strain/Indicator: TA97, Metabolic Activation: RAT, LIVER, S-9, AROCLOR 1254, Method: STANDARD PLATE) was “inactive; negative” and the mutagenic call (Test System: AMES SALMONELLA TYPHIMURIUM, Strain/Indicator: TA97, Metabolic Activation: RAT, LIVER, S-9, DI(2-ETHYLHEXYL)PHTHALATE, Method: STANDARD PLATE) was “inactive; negative”. For the same compound, the mutagenic call [1] was “inactive; negative”, the mutagenic call [2] was “inactive; negative” and the mutagenic call (Test System: AMES SALMONELLA TYPHIMURIUM, Strain/Indicator: TA98, Metabolic Activation: RAT, LIVER, S-9, DI(2-ETHYLHEXYL)PHTHALATE, Method: STANDARD PLATE) was “inactive; negative”. For the same compound, the mutagenic call [3] was “inactive; negative”, the mutagenic call [4] was “inactive; negative” and the mutagenic call (Test System: AMES SALMONELLA TYPHIMURIUM, Strain/Indicator: TA100, Metabolic Activation: RAT, LIVER, S-9, DI(2-ETHYLHEXYL)PHTHALATE, Method: STANDARD PLATE) was “inactive; negative”. The mutagenic call (Test System: AMES SALMONELLA TYPHIMURIUM, Strain/Indicator: TA102, Metabolic Activation: NONE, Method: STANDARD PLATE) was “inactive; negative”, the mutagenic call (Test System: AMES SALMONELLA TYPHIMURIUM, Strain/Indicator: TA102, Metabolic Activation: RAT, LIVER, S-9, AROCLOR 1254, Method: STANDARD PLATE) was “inactive; negative” and the mutagenic call (Test System: AMES SALMONELLA TYPHIMURIUM, Strain/Indicator: TA102, Metabolic Activation: RAT, LIVER, S-9, DI(2-ETHYLHEXYL)PHTHALATE, Method: STANDARD PLATE) was “inactive; negative”.
For `O=C(CBr)c1oc([N+](=O)[O-])c(-c2ccccc2)c1-c1ccccc1`, the mutagenic call (Test System: AMES SALMONELLA TYPHIMURIUM, Strain/Indicator: TA98(NR), Metabolic Activation: NONE, Method: STANDARD PLATE) was “active; positive”, the mutagenic call [1] was “active; positive” and the mutagenic call (Test System: AMES SALMONELLA TYPHIMURIUM, Strain/Indicator: TA100(NR), Metabolic Activation: NONE, Method: STANDARD PLATE) was “active; positive”. The mutagenic call [3] was “active; positive”.
In the case of `O=C/C=C/c1ccc([N+](=O)[O-])cc1`, the mutagenic call (Test System: AMES SALMONELLA TYPHIMURIUM, Strain/Indicator: TA98, Metabolic Activation: HAMSTER, LIVER, S-9, AROCLOR 1254, Method: STANDARD PLATE) is reported as “active; positive”, the mutagenic call [1] is reported as “active; positive” and the mutagenic call [2] is reported as “active; positive”. For the same compound, the mutagenic call (Test System: AMES SALMONELLA TYPHIMURIUM, Strain/Indicator: TA100(1,8-DNP6), Metabolic Activation: NONE, Method: PREINCUBATION) was “active; positive”, the mutagenic call (Test System: AMES SALMONELLA TYPHIMURIUM, Strain/Indicator: TA100(1,8-DNP6), Metabolic Activation: RAT, LIVER, S-9, AROCLOR 1254, Method: PREINCUBATION) was “active; positive” and the mutagenic call (Test System: AMES SALMONELLA TYPHIMURIUM, Strain/Indicator: TA100(NR), Metabolic Activation: NONE, Method: PREINCUBATION) was “inactive; negative”. The mutagenic call (Test System: AMES SALMONELLA TYPHIMURIUM, Strain/Indicator: TA100(NR), Metabolic Activation: RAT, LIVER, S-9, AROCLOR 1254, Method: PREINCUBATION) was “active; positive”, the mutagenic call (Test System: AMES SALMONELLA TYPHIMURIUM, Strain/Indicator: TA100, Metabolic Activation: HAMSTER, LIVER, S-9, AROCLOR 1254, Method: STANDARD PLATE) was “active; positive” and the mutagenic call (Test System: AMES SALMONELLA TYPHIMURIUM, Strain/Indicator: TA100, Metabolic Activation: NONE, Method: PREINCUBATION) was “active; positive”. The mutagenic call [3] was “active; positive”, the mutagenic call (Test System: AMES SALMONELLA TYPHIMURIUM, Strain/Indicator: TA100, Metabolic Activation: RAT, LIVER, S-9, AROCLOR 1254, Method: PREINCUBATION) was “active; positive” and the mutagenic call [4] was “active; positive”. For the same compound, the mutagenic call (Test System: MOUSE LYMPHOMA, Strain/Indicator: L5178Y (TK+/TK-), Metabolic Activation: NONE, Method: SUSPENSION/PLATE) was “active; positive. reevaluation of results: positive” and the mutagenic call (Test System: MOUSE LYMPHOMA, Strain/Indicator: L5178Y (TK+/TK-), Metabolic Activation: RAT, LIVER, S-9, AROCLOR 1254, Method: SUSPENSION/PLATE) was “inactive; negative. reevaluation of results: negative”.
With `Cc1cc(S(=O)(=O)O)c([N+](=O)[O-])cc1[N+](=O)[O-]` the mutagenic call (End Point: In vitro chromosomal aberrations, Test System: V79 Chinese hamster fibroblasts, Metabolic Activation: None) was “inactive; negative”, the mutagenic call (Test System: Ames Salmonella typhimurium, Strain/Indicator: TA98, Metabolic Activation: None, Method: Standard plate) was “inactive; negative” and the mutagenic call (Test System: Ames Salmonella typhimurium, Strain/Indicator: TA98, Metabolic Activation: Rat, Liver, S-9, Method: Standard plate) was “inactive; negative”. For the same compound, the mutagenic call (Test System: Ames Salmonella typhimurium, Strain/Indicator: TA100, Metabolic Activation: None, Method: Standard plate) was “inactive; negative” and the mutagenic call (Test System: Ames Salmonella typhimurium, Strain/Indicator: TA100, Metabolic Activation: Rat, Liver, S-9, Method: Standard plate) was “inactive; negative”.
